The results in this text go back to US11548888B2, “KRas G12C inhibitors” (Mirati Therapeutics, Inc., priority 2019, dated 2023).

Structures are written as SMILES.

As a reminder, the IC50 is the point on the concentration scale where inhibition reaches its midpoint. A low value points to higher potency.

For this test, the target named is T1, KRas G12C (Homo sapiens, UniProt P01116, G12C).
T1 construct: NCI-H358 cells (ATCC CRL-5807) express KRas G12C
T1 sequence (P01116 1-188 isoform P01116-2 G12C): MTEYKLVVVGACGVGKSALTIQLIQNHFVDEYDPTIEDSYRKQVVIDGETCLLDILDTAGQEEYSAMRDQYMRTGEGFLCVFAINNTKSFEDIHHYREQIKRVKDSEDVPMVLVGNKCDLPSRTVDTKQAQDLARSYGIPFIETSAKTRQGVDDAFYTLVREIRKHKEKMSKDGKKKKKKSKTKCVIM
Nature of the test: Inhibition of KRas G12C-dependent cell growth: Phospho-ERK in NCI-H358 cells. It counts as cell-based. The note with it: NCI-H358 cells expressing KRas G12C; Phospho-ERK (Thr202/Tyr204) normalized to GAPDH; 3 hours compound; 4 parameter fit. In short, it runs like this: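 NCI-H358 cells (KRas G12C) exposed to compounds for 3 h, 0.5% DMSO final. Fixed cells immunostained for pERK(Thr202/Tyr204) and GAPDH with infrared secondary antibodies. pERK normalized to GAPDH, expressed as percent of DMSO control; IC50 from 4-parameter dose-response fit.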
With `C=C(F)C(=O)N1CCN(c2nc(OCC34CCCN3C(CF)CC4)nc3c(F)c(-c4cccc5ccc(F)c(Cl)c45)ncc23)C[C@@H]1CC#N` (stereo partly drawn) [Example 188], half-maximal inhibition (IC50) was put at 29 nM. This counts as double-digit nanomolar.
Take `C=CC(=O)N1CC[C@@H]2[C@H]1CN2c1ncnc2c(F)c(-c3cccc4ccsc34)ncc12` [Example 278]: half-maximal inhibition (IC50) was put at 10000 nM.
As for `C=C(F)C(=O)N1CCN(c2nc(OC[C@H]3CCN3CC)nc3c(F)c(-c4cccc5ccc(F)c(Cl)c45)ncc23)C[C@@H]1CC#N` [Example 172], it took 18 nM to reach half-maximal inhibition (IC50).
To `COC/C=C/C(=O)N1CCN(c2nc(OC[C@@H]3CCCN3C)nc3c(F)c(-c4cccc5cccc(Cl)c45)ncc23)C[C@@H]1CC#N` [Example 78] belongs 13 nM.
`C=C(F)C(=O)N1CCN(c2nc(OC[C@H]3[C@@H]4CC[C@@H](C4)N3CCF)nc3c(F)c(-c4cccc5ccc(F)c(Cl)c45)ncc23)C[C@@H]1CC#N` [Example 195] returned an IC50 of 31 nM.
For `C=C(F)C(=O)N1CCN(c2nc(OCC3CN(C)CC3(F)F)nc3c(F)c(-c4cccc5ccc(F)c(Cl)c45)ncc23)C[C@@H]1CC#N` (single isomer, unassigned) [Example 179] the value was 224 nM; for `C=CC(=O)N1CC[C@@H]2[C@H]1CN2c1ncnc2c(F)c(-c3cccc4cccc(Cl)c34)ncc12` [Example 284], 557 nM.
Consider `C=CC(=O)N1CCN(c2ncnc3c(F)c(-c4cccc5ccc(F)c(Cl)c45)ncc23)[C@H](C)C1` [Example 133], for which half-maximal inhibition (IC50) required 10000 nM.
As to `C=C(F)C(=O)N1CCN(c2nc(OC[C@H]3[C@@H](F)CCN3C)nc3c(F)c(-c4cccc5ccc(F)c(Cl)c45)ncc23)C[C@@H]1CC#N` [Example 177], the IC50 stood at 51 nM.
Regarding `C=C(F)C(=O)N1CCN(c2nc(OC[C@@H]3CCCN3C)nc3c(F)c(-c4ccccc4F)ncc23)C[C@@H]1CC#N` [Example 87], half-maximal inhibition (IC50) required 4380 nM.
Take `C=CC(=O)N1C[C@@H]2[C@H]1CCN2c1ncnc2c(F)c(-c3cccc4ccc(F)c(Cl)c34)ncc12` [Example 190]: the IC50 worked out at 10000 nM.
`C=CC(=O)N1CC[C@@H]2[C@H]1CN2c1nc(OC[C@@H]2CCCN2C)nc2c(F)c(-c3cccc4ccc(F)c(Cl)c34)ncc12` [Example 239]: it took 5 nM to reach half-maximal inhibition (IC50). Compared with the last compound, the IC50 is about 2000-fold lower.
Regarding `C=C(F)C(=O)N1CCN(c2nc(OC[C@@H]3[C@H]4C[C@H]4CN3C)nc3c(F)c(-c4cccc5ccc(F)c(Cl)c45)ncc23)C[C@@H]1CC#N` [Example 191], half-maximal inhibition (IC50) required 15 nM.
Turning to `C=CC(=O)N1CC2(C1)CN(c1ncnc3c(F)c(-c4cccc5ccc(F)c(Cl)c45)ncc13)C2` [Example 159], the IC50 turned out to be 10000 nM.
In the case of `C=C(F)C(=O)N1CCN(c2nc(OCC3CN(C)CC3(F)F)nc3c(F)c(-c4cccc5ccc(F)c(Cl)c45)ncc23)C[C@@H]1CC#N` (single isomer, unassigned) [Example 180], the IC50 was determined as 362 nM. Against the preceding compound, the IC50 is about 28-fold lower.
With `O=C(/C=C/C(F)F)N1CC[C@@H]2[C@H]1CN2c1ncnc2c(F)c(-c3cccc4ccc(F)c(Cl)c34)ncc12` [Example 261], half-maximal inhibition (IC50) was put at 486 nM. The IC50 values of the last two compounds are within 1.5-fold of each other.
Regarding `C=CC(=O)N1CCN(c2nc(OC)nc3c(F)c(-c4cccc5ccc(F)c(Cl)c45)ncc23)C[C@@H]1CC#N` [Example 136], the IC50 stood at 92 nM. This IC50 lies about 5.3-fold lower than the previous one.
In turn, `C=CC(=O)N1CCN(c2nc(OCC34CCCN3CCC4)nc3c(F)c(-c4cccc5ccc(F)c(Cl)c45)ncc23)CC1` [Example 102] yielded an IC50 of 12 nM.
In the case of `COC/C=C/C(=O)N1CCN(c2nc(OC[C@@H]3C[C@@H](F)CN3C)nc3c(F)c(-c4cccc5cccc(Cl)c45)ncc23)C[C@@H]1CC#N` [Example 44, 2-[(2S)-4-[7-(8-chloro-1-naphthyl)-8-fluoro-2-[[(2S,4R)-4-fluoro-1-methyl-pyrrolidin-2-yl]methoxy]pyrido[4,3-d]pyrimidin-4-yl]-1-[(E)-4-methoxybut-2-enoyl]piperazin-2-yl]acetonitrile], the IC50 amounted to 15 nM.
`CN1C[C@H](F)C[C@H]1COc1nc(N2CCN(C(=O)/C=C/CF)[C@@H](CC#N)C2)c2cnc(-c3cccc4cccc(Cl)c34)c(F)c2n1` [Example 43, 2-[(2S)-4-[7-(8-chloro-1-naphthyl)-8-fluoro-2-[[(2S,4R)-4-fluoro-1-methyl-pyrrolidin-2-yl]methoxy]pyrido[4,3-d]pyrimidin-4-yl]-1-[(E)-4-fluorobut-2-enoyl]piperazin-2-yl]acetonitrile] showed an IC50 of 4 nM. Against the preceding compound, the IC50 is about 3.8-fold lower.
`C=CC(=O)N1CC[C@@H]2[C@H]1CN2c1ncnc2c(F)c(-c3cccc4cccc(CC)c34)ncc12` [Example 303, 1-((1R, 5R)-6-(7-(8-ethylnaphthalen-1-yl)-8-fluoropyrido[4,3-d]pyrimidin-4-yl)-2,6-diazabicyclo[3.2.0]heptan-2-yl)prop-2-en-1-one]: half-maximal inhibition (IC50) required 714 nM.
In the case of `C=C(F)C(=O)N1CCN(c2nc(OCCC(F)(F)F)nc3c(F)c(-c4cccc5ccc(F)c(Cl)c45)ncc23)C[C@@H]1CC#N` [Example 104], it took 699 nM to reach half-maximal inhibition (IC50).
For `N#CC[C@H]1CN(c2nc(OCCCN3C[C@@H]4C[C@H]3CO4)nc3c(F)c(-c4cccc5cccc(Cl)c45)ncc23)CCN1C(=O)/C=C/CF` [Example 31, 2-[(2S)-4-[7-(8-chloro-1-naphthyl)-8-fluoro-2-[3-[(1S,4S)-2-oxa-5-azabicyclo[2.2.1]heptan-5-yl]propoxy]pyrido[4,3-d]pyrimidin-4-yl]-1-[(E)-4-fluorobut-2-enoyl]piperazin-2-yl]acetonitrile] the value was 33 nM; for `C=C(F)C(=O)N1CCN(c2nc(OCC34CCCN3CCC4)nc3c(F)c(-c4cccc(F)c4C(F)(F)F)ncc23)C[C@@H]1CC#N` [Example 101], 43 nM.
For `C=C(F)C(=O)N1CCN(c2nc(OC3CCN(C)CC3)nc3c(F)c(-c4cccc5cccc(Cl)c45)ncc23)C[C@@H]1CC#N` [Example 70] the value was 456 nM; for `C=CC(=O)N1CC[C@@H]2[C@H]1CN2c1ncnc2c(F)c(-c3cccc4ccc(F)c(Cl)c34)ncc12` [Example 175], 134 nM; for `C=CC(=O)N1CCN(c2ncnc3c(F)c(-c4cccc5ccc(F)c(Cl)c45)ncc23)C(CC#N)C1` (stereo not drawn) [Example 150], 10000 nM.
With `C=C(F)C(=O)N1CCN(c2nc(OC[C@H]3CN(C)CCO3)nc3c(F)c(-c4cccc5ccc(F)c(Cl)c45)ncc23)C[C@@H]1CC#N` [Example 158], the IC50 was found to be 68 nM.
As for `CN(C)CC#CC(=O)N1CCN(c2ncnc3c(F)c(-c4cccc5ccc(F)c(Cl)c45)ncc23)CC1` [Example 200], it took 410 nM to reach half-maximal inhibition (IC50). Compared with the last compound, the IC50 is about 6-fold higher.
Take `C=CC(=O)N1CCN(c2nc(OC[C@@H]3CCCN3C)nc3cc(-c4cc(O)cc5ccccc45)ncc23)CC1` [Example 6, 1-[4-[7-(3-hydroxy-1-naphthyl)-2-[[(2S)-1-methylpyrrolidin-2-yl]methoxy]pyrido[4,3-d]pyrimidin-4-yl]piperazin-1-yl]prop-2-en-1-one]: inhibition was half-maximal at 300 nM (IC50). The IC50 values of the last two compounds are within 1.5-fold of each other.
Turning to `C=C(F)C(=O)N1CCN(c2nc(OC[C@H]3CCCN3C)nc3c(F)c(-c4cccc5cccc(C)c45)ncc23)C[C@@H]1CC#N` [Example 16, 2-((S)-4-(8-fluoro-7-(8-methylnaphthalen-1-yl)-2-(((R)-1-methylpyrrolidin-2-yl)methoxy)pyrido[4,3-d]pyrimidin-4-yl)-1-(2-fluoroacryloyl)piperazin-2-yl)acetonitrile], the half-maximal inhibitory concentration (IC50) turned out to be 118 nM.
For `C=C(F)C(=O)N1CCN(c2nc(OC[C@@H]3CCCN3C)nc3c(F)c(-c4cc(O)cc5ccccc45)ncc23)C[C@@H]1CC#N` [Example 95] the value was 14 nM; for `C=CC(=O)N1C[C@H]2[C@@H]1CCN2c1ncnc2c(F)c(-c3cccc4ccc(F)c(Cl)c34)ncc12` [Example 232], 10000 nM.
`C=CC(=O)N1CC[C@@H]2[C@H]1CN2c1nc(OC(C)C)nc2c(F)c(-c3cccc4ccc(F)c(Cl)c34)ncc12` [Example 270] came in with an IC50 of 3780 nM.
For `C=C(F)C(=O)N1CCN(c2nc(OC[C@@H]3CC(F)(F)CN3C)nc3c(F)c(-c4cccc5cccc(C)c45)ncc23)C[C@@H]1CC#N` [Example 13, 2-((S)-4-(2-(((S)-4,4-difluoro-1-methylpyrrolidin-2-yl)methoxy)-8-fluoro-7-(8-methylnaphthalen-1-yl)pyrido[4,3-d]pyrimidin-4-yl)-1-(2-fluoroacryloyl)piperazin-2-yl)acetonitrile] the value was 127 nM; for `COC/C=C/C(=O)N1CCN(c2nc(OC[C@@H]3C[C@@H](OC)CN3C)nc3c(F)c(-c4cccc5cccc(C)c45)ncc23)C[C@@H]1CC#N` [Example 57, 2-[(2S)-4-[8-fluoro-2-[[(2S,4R)-4-methoxy-1-methyl-pyrrolidin-2-yl]methoxy]-7-(8-methyl-1-naphthyl)pyrido[4,3-d]pyrimidin-4-yl]-1-[(E)-4-methoxybut-2-enoyl]piperazin-2-yl]acetonitrile], 58 nM; for `C=CC(=O)N1CCN(c2nc(OCCN3CCOCC3)nc3cc(-c4cc(O)cc5ccccc45)ncc23)CC1` [Example 4, 1-(4-(7-(3-hydroxynaphthalen-1-yl)-2-(2-morpholinoethoxy)pyrido[4,3-d]pyrimidin-4-yl)piperazin-1-yl)prop-2-en-1-one], 3430 nM.
`C#Cc1cccc2cc(Cl)cc(-c3ncc4c(N5C[C@@H]6[C@H]5CCN6C(=O)C=C)ncnc4c3F)c12` [Example 294, 1-((1R,5R)-6-(7-(3-chloro-8-ethynylnaphthalen-1-yl)-8-fluoropyrido[4,3-d]pyrimidin-4-yl)-2,6-diazabicyclo[3.2.0]heptan-2-yl)prop-2-en-1-one] displayed an IC50 of 2150 nM.
The compound `C=C(F)C(=O)N1CCN(c2nc(OC[C@@H]3CC(F)(F)CN3C)nc3c(F)c(-c4cccc5cccc(Cl)c45)ncc23)C[C@@H]1CC#N` [Example 21, 2-((S)-4-(7-(8-chloronaphthalen-1-yl)-2-(((S)-4,4-difluoro-1-methylpyrrolidin-2-yl)methoxy)-8-fluoropyrido[4,3-d]pyrimidin-4-yl)-1-(2-fluoroacryloyl)piperazin-2-yl)acetonitrile] registered an IC50 of 105 nM.
